Experimental data taken from ChEMBL document CHEMBL1130174, “Pyrrolidine-3-carboxylic acids as endothelin antagonists. 2. Sulfonamide-based ETA/ETB mixed antagonists” (J Med Chem, 1997).

Experiments:
Endothelin-1 receptor = molecular target: T1, Endothelin-1 receptor (Rattus norvegicus, UniProt P26684); test: Ability to displace endothelin ([125I]ET1) from endothelin A receptor derived from MMQ cells of rodent.; format: cell-based, Rodentia sp.
T1 sequence (P26684 whole entry): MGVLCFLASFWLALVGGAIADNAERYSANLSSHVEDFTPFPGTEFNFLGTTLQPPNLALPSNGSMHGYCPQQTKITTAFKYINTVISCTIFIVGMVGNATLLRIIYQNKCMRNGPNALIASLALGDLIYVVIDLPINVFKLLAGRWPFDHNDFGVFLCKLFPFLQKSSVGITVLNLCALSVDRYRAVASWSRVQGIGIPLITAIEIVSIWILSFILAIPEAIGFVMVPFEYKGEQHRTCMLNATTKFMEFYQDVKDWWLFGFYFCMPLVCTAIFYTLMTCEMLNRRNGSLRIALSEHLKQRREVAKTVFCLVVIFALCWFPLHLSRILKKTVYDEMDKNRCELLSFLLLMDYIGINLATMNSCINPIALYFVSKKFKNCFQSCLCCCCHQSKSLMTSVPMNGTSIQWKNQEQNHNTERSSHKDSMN

[1] = Ratio of endothelin A receptor and endothelin B receptor.
[2] = molecular target: T2, Endothelin receptor type B (Sus scrofa, UniProt P35463); test: Ability to displace endothelin ([125I]ET-3) from endothelin B receptor derived from cerebellar tissue of porcine.
T2 sequence (P35463 whole entry): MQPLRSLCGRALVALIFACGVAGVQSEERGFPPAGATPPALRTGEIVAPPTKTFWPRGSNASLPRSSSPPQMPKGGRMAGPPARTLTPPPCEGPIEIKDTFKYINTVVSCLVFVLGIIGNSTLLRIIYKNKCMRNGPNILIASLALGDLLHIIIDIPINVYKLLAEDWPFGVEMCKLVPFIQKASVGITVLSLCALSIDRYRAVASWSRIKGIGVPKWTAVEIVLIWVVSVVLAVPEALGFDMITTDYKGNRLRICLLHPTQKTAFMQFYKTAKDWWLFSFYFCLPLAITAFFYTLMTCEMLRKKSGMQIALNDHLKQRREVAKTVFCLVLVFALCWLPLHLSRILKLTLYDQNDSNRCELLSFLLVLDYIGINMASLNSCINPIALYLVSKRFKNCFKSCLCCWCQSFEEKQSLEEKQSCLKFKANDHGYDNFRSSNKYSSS

[3] = Oral bioavailability in rat; format: ADME, organism-based; conditions: in vivo
[4] = Half-life is obtained after oral dosing of rats.; format: ADME, organism-based; conditions: rat, in vivo
[5] = molecular target: T3, Endothelin receptor type B (Homo sapiens, UniProt P24530); test: Ability to block the ET-1-induced hydrolysis of inositol phosphate in Endothelin B receptor of chinese hamster ovary(CHO) cells.; format: functional
T3 sequence (P24530 whole entry): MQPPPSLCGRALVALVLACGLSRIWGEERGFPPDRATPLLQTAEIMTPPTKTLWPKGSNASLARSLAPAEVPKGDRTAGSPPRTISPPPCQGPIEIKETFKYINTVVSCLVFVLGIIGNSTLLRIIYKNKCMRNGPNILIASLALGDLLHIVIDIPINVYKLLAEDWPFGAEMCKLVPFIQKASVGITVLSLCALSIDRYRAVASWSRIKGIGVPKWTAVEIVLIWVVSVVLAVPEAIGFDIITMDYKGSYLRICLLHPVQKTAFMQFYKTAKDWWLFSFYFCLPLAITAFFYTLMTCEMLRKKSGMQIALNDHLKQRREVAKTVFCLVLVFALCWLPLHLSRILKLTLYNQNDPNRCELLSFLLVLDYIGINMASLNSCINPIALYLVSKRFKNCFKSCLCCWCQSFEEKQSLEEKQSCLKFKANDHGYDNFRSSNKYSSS

[6] = Half-life is obtained after intravenous dosing of rats.; format: ADME, organism-based; conditions: rat, in vivo
Rattus norvegicus = test: Total drug exposure is determined after oral dosing in rats.; format: ADME, organism-based; parameters: concentration or dose not given beside the values; conditions: in vivo
[7] = Maximum drug concentration is determined after oral dosing in rats.; format: ADME, organism-based; parameters: route oral; conditions: rat, in vivo
[8] = molecular target: T3, Endothelin receptor type B; test: Binding assay performed using human Endothelin B receptor (hETB) expressed in chinese hamster ovary cells(CHO); format: cell-based

Row | Compound | IC50 (Endothelin-1 receptor) [nM] | Ratio [1] | IC50 [2] [nM] | also measured
1 | CCCN(CCN1C[C@H](c2ccc3c(c2)OCO3)[C@@H](C(=O)O)[C@@H]1c1ccc(OC)cc1)S(=O)(=O)c1ccc(C)cc1 | 8.3 | 10 | 85 | –
2 | CCCN(CCN1C[C@H](c2ccc3c(c2)OCO3)[C@@H](C(=O)O)[C@@H]1c1ccc(OC)cc1)S(=O)(=O)Cc1ccccc1 | – | – | 34 | –
3 | CCCN(CCN1C[C@H](c2ccc3c(c2)OCO3)[C@@H](C(=O)O)[C@@H]1c1ccc(OC)c(F)c1)S(=O)(=O)Cc1ccccc1 | 2.7 | 1.1 | 2.9 | –
4 | CCCCN(CCCC)C(=O)CN1C[C@H](c2ccc3c(c2)OCO3)[C@@H](C(=O)O)[C@@H]1c1ccc(OC)cc1 | – | – | – | bioavailability [3]: 70%
5 | CCCN(CCN1C[C@H](c2ccc3c(c2)OCO3)[C@@H](C(=O)O)[C@@H]1c1ccc(OC)c(F)c1)S(=O)(=O)CCCC(F)(F)F (stereo in doubt; 15e) | – | – | 0.32 | half-life [4]: 8.9 h; IC50 [5]: 1.46 nM; half-life [6]: 4.3 h; AUC (Rattus norvegicus): 4300 ng·h/mL; bioavailability [3]: 25%; Cmax [7]: 1200 ng/mL; IC50 [8]: 0.2 nM
6 | CCCCCS(=O)(=O)N(CCC)CCN1C[C@H](c2ccc3c(c2)OCO3)[C@@H](C(=O)O)[C@@H]1c1ccc(OC)c(OC)c1 | 2.3 | 32 | 73 | –
7 | CCCCCS(=O)(=O)N(CCC)CCN1C[C@H](c2ccc3c(c2)OCO3)[C@@H](C(=O)O)[C@@H]1c1ccc2c(c1)OCCO2 | 0.66 | 10 | 7 | –
8 | CCCCS(=O)(=O)N(CCC)CCN1C[C@H](c2ccc3c(c2)OCO3)[C@@H](C(=O)O)[C@@H]1c1ccc(OC)cc1 | 2 | 4.7 | 9.4 | –
9 | CCCN(CCN1C[C@H](c2ccc3c(c2)OCO3)[C@@H](C(=O)O)[C@@H]1c1ccc(OC)cc1)S(=O)(=O)CC(C)C | 0.78 | 6.6 | 5.2 | –
10 | CCCCCS(=O)(=O)N(CCC)CCN1C[C@H](c2ccc3c(c2)OCO3)[C@@H](C(=O)O)[C@@H]1c1ccc(OCOC)cc1 | 0.62 | 8.4 | 5.2 | –
11 | CCCCCCS(=O)(=O)N(CCC)CCN1C[C@H](c2ccc3c(c2)OCO3)[C@@H](C(=O)O)[C@@H]1c1ccc(OC)cc1 | 0.43 | 10 | 4.5 | –
12 | CCCCCS(=O)(=O)N(CCC)CCN1C[C@H](c2ccc3c(c2)OCO3)[C@@H](C(=O)O)[C@@H]1c1ccc(OC)c(F)c1 (stereo in doubt; 13e) | – | – | 0.85 | –
13 | CCCN(CCN1C[C@H](c2ccc3c(c2)OCO3)[C@@H](C(=O)O)[C@@H]1c1ccc(OC)cc1)S(=O)(=O)CCC | 1.6 | 22 | 36 | –
14 | CCCN(CCN1C[C@H](c2ccc3c(c2)OCO3)[C@@H](C(=O)O)[C@@H]1c1ccc(OC)c(F)c1)S(=O)(=O)CCC(C)C | 0.46 | 2.6 | 1.2 | –
15 | CCCN(CCN1C[C@H](c2ccc3c(c2)OCO3)[C@@H](C(=O)O)[C@@H]1c1ccc(OC)cc1)S(=O)(=O)CCCCl | 2 | 3.1 | 6.3 | –
16 | CCCN(CCN1C[C@H](c2ccc3c(c2)OCO3)[C@@H](C(=O)O)[C@@H]1c1ccc(OC)c(F)c1)S(=O)(=O)CCCCl (stereo in doubt; 14e) [listing 1 of 2 here] | 0.4 | – | 1 | –
17 | CCCN(CCN1C[C@H](c2ccc3c(c2)OCO3)[C@@H](C(=O)O)[C@@H]1c1ccc(OC)c(F)c1)S(=O)(=O)CC(C)C | 0.21 | 7.6 | 1.6 | –
18 | CCCCCCS(=O)(=O)N(CCC)CCN1C[C@H](c2ccc3c(c2)OCO3)[C@@H](C(=O)O)[C@@H]1c1ccc(OC)c(F)c1 (stereo in doubt; 15c) | – | – | 0.34 | half-life [4]: 6.4 h; IC50 [5]: 1.12 nM; half-life [6]: 3.3 h; AUC (Rattus norvegicus): 2800 ng·h/mL; bioavailability [3]: 40%; Cmax [7]: 700 ng/mL; IC50 [8]: 0.48 nM
19 | CCCN(CCN1C[C@H](c2ccc3c(c2)OCO3)[C@@H](C(=O)O)[C@@H]1c1ccc(OC)cc1)S(=O)(=O)c1ccc(Cl)cc1 | 6.3 | 6.5 | 41 | –

Row | Compound | IC50 (Endothelin-1 receptor) [nM] | Ratio [1] | IC50 [2] [nM] | also measured
20 | CCCCCS(=O)(=O)N(CCC)CCN1C[C@H](c2ccc3c(c2)OCO3)[C@@H](C(=O)O)[C@@H]1c1ccc(F)c(F)c1 | 18 | 3.8 | 68 | –
21 | CCCCN(CCN1C[C@H](c2ccc3c(c2)OCO3)[C@@H](C(=O)O)[C@@H]1c1ccc(OC)cc1)C(=O)CCC | 20 | 43 | 850 | –
22 | CCCN(CCN1C[C@H](c2ccc3c(c2)OCO3)[C@@H](C(=O)O)[C@@H]1c1ccc(OC)cc1)S(=O)(=O)c1ccc(OC)cc1 | 0.53 | 120 | 66 | –
23 | CCCN(CCN1C[C@H](c2ccc3c(c2)OCO3)[C@@H](C(=O)O)[C@@H]1c1ccc(OC)cc1)S(=O)(=O)CCOC | 5.2 | 15 | 77 | –
24 | CCCCCS(=O)(=O)N(CCC)CCN1C[C@H](c2ccc3c(c2)OCO3)[C@@H](C(=O)O)[C@@H]1c1ccc(OC)cc1 | 0.57 | 7.2 | 4.1 | –
25 | CCCN(CCN1C[C@H](c2ccc3c(c2)OCO3)[C@@H](C(=O)O)[C@@H]1c1ccc(OC)c(F)c1)S(=O)(=O)CCCCl (stereo in doubt; 14e) [listing 2 of 2 here] | – | 2.5 | – | –
26 | CCCCCCCS(=O)(=O)N(CCC)CCN1C[C@H](c2ccc3c(c2)OCO3)[C@@H](C(=O)O)[C@@H]1c1ccc(OC)cc1 | 5.1 | 11 | 57 | –
27 | CCCN(CCN1C[C@H](c2ccc3c(c2)OCO3)[C@@H](C(=O)O)[C@@H]1c1ccc(OC)cc1)S(=O)(=O)CC | 1.2 | 79 | 95 | –
28 | CCCS(=O)(=O)N(C)CCN1C[C@H](c2ccc3c(c2)OCO3)[C@@H](C(=O)O)[C@@H]1c1ccc(OC)cc1 | 10 | 26 | 260 | –
29 | CCCN(CCN1C[C@H](c2ccc3c(c2)OCO3)[C@@H](C(=O)O)[C@@H]1c1ccc(OC)cc1)S(=O)(=O)c1ccccc1 | 1.4 | 150 | 210 | –
30 | CCCCS(=O)(=O)N(CCC)CCN1C[C@H](c2ccc3c(c2)OCO3)[C@@H](C(=O)O)[C@@H]1c1ccc(OC)c(F)c1 (stereo in doubt; 14a) | – | – | 1 | –
31 | CCCCCS(=O)(=O)N(CCC)CCN1C[C@H](c2ccc3c(c2)OCO3)[C@@H](C(=O)O)[C@@H]1c1ccc(OCC)c(F)c1 | 1.3 | 2 | 2.6 | –
32 | CCCCCCS(=O)(=O)N(CCC)CCN1C[C@H](c2ccc3c(c2)OCO3)[C@@H](C(=O)O)[C@@H]1c1ccc(OC)c(F)c1 (stereo in doubt; 14b) | – | – | 1.5 | –
33 | COc1ccccc1Oc1c(NS(=O)(=O)c2ccc(C(C)(C)C)cc2)nc(-c2ncccn2)nc1OCCO [BOSENTAN] | – | – | – | half-life [6]: 4 h; bioavailability [3]: 30%
34 | CCCN(CCN1C[C@H](c2ccc3c(c2)OCO3)[C@@H](C(=O)O)[C@@H]1c1ccc(OC)c(F)c1)S(=O)(=O)CCCC(F)(F)F (stereo in doubt; 14f) | – | – | 0.98 | –
35 | CCCCCS(=O)(=O)N(CCC)CCN1C[C@H](c2ccc3c(c2)OCO3)[C@@H](C(=O)O)[C@@H]1c1ccc(OCCC)cc1 | 48 | 13 | 610 | –
36 | CCCS(=O)(=O)N(CCN1C[C@H](c2ccc3c(c2)OCO3)[C@@H](C(=O)O)[C@@H]1c1ccc(OC)cc1)CC(C)C | 8.1 | 7.7 | 62 | –
37 | CCCCN(CCN1C[C@H](c2ccc3c(c2)OCO3)[C@@H](C(=O)O)[C@@H]1c1ccc(OC)cc1)S(=O)(=O)CCC | 2 | 30 | 60 | –
